From patent US8227245B2, “Multipotent stem cells from peripheral tissues and uses thereof” (McGill University, priority 2000, dated 2012)

Experiments:
[1] = test system: skin-derived MSCs; assay: Pharmacological agents added to proliferating skin-derived MSCs (morphology, survival); assay type: cell-based, mouse; conditions: plated three days in proliferation medium containing FGF, medium supplemented with agent
Text: FIG. 10 is a series of photographs showing the effect of various pharmacological agents on mouse skin-derived MSCs.
We tested the ability of pharmacological agents to alter this phenotype.

[2] = test system: skin-derived MSCs; assay: Endodermal marker expression of skin-derived MSCs by RT-PCR after plating with nicotinamide; assay type: cell-based; conditions: cells dissociated and plated in media supplemented with nicotinamide
Method: Skin-derived MSCs were cultured under standard proliferation conditions in the presence or absence of B-27 supplement. Differentiation was induced by plating cells in the presence of nicotinamide, and the resulting differentiated cells were analyzed by quantitative RT-PCR. […] Although cells proliferated in either the presence or the absence of B27 supplement can be induced to express endodermal markers, cells proliferated in B27 appear to express such markers to a higher degree.
Our recent discovery that MSCs maintain the potential to produce both neural and non-neural cell types has been accompanied by the discovery that non-neural stem cells such as bone marrow-derived stem cells (i.e., stromal cells or mesenchymal stem cells) also have the potential to produce a wide variety of neural and non-neural stem cells (Ferrari et al., Science 279:1528-1530, 1998; Gussoni et al., Nature 401:390-394, 1999; Peterson et al., Science 284:1168-1170, 1999; Pereira et al., Proc. Natl. Acad. Sci. USA 92:4857-4861, 1995; Prockop, Science 276:71-74, 1997; Kessler and Byrne, Annu. Rev. Physiol. 61:219-242, 1999; Pittenger et al., Science 284:143-147). […] After several days of co-culture the skin-derived stem cells were analyzed based on both morphology and on protein expression. […]

[3] = test system: skin-derived stem cells harvested from human foreskin; assay: Culture of human foreskin skin-derived stem cells in presence and absence of LIF; assay type: cell-based; conditions: proliferating non-adherent cultures with EGF and FGF2
Text: In contrast to human central nervous system derived stem cells, the survival and proliferation of human skin-derived stem cells is not dependent on LIF.
We cultured the cell suspension, as previously described, in non-adherent vessels in the presence of EGF and FGF2. […] The clusters are morphologically indistinguishable from skin-derived stem cells derived from rodent tissue. Skin-derived clusters are loosely compacted, and the cells can be readily dissociated manually without the use of proteases. Such characteristics appear to distinguish skin-derived clusters from CNS-derived neurospheres. […] Furthermore, we have currently passaged and maintained foreskin derived stem cells as proliferating cultures for greater than three months.

[4] = test system: skin derived MSCs; assay: Neuronal differentiation of skin-derived MSCs plated in 5% serum with added agent, anti-neurofilament immunocytochemistry; assay type: cell-based; conditions: 5% serum plus agent, compared with serum alone
Method: Cells were dissociated and plated in the presence of either 5% FBS, 5% FBS+retinoic acid (RA), or 5% FBS+BMP7. Cells were analyzed immunocytochemically for expression of neurofilament M (NFM).
Skin derived MSCs were obtained and cultured as described in detail above. To induce differentiation, cells were plated in the presence of 5% serum supplemented with either retinoic acid or BMP-7. Neuronal differentiation was analyzed using a polyclonal anti-neurofilament antibody.

Molecule: COc1cccc(-c2cc(=O)c3ccccc3o2)c1N [PD098059]
- effect on phenotype of proliferating skin-derived MSCs [1]: caused proliferating cells to flatten and differentiate

Molecule: C[S+]([O-])c1ccc(-c2nc(-c3ccncc3)c(-c3ccc(F)cc3)[nH]2)cc1 (centres unmarked) [SB203580]
- effect on phenotype of proliferating skin-derived MSCs [1]: no observed effect

Molecule: NC(=O)c1cccnc1 [nicotinamide]
- expression of endodermal markers (GATA-4, HNF3α, Isl1, AFP, HNF3β, Ngn3, Pdx-1, Insulin) [2]: express markers of endodermal differentiation

Molecule: LIF: cytokine added to culture medium (R&D Systems)
- proliferation, differentiation or survival characteristics in presence and absence of LIF [3]: no significant differences

B1: BMP-7: therapeutic protein (growth factor) added to 5% serum to induce differentiation (protein, UniProt P18075 293-431, looked up)
Bone morphogenetic protein 7: STGSKQRSQNRSKTPKNQEALRMANVAENSSSDQRQACKKHELYVSFRDLGWQDWIIAPEGYAAYYCEGECAFPLNSYMNATNHAIVQTLVHFINPETVPKPCCAPTQLNAISVLYFDDSSNVILKKYRNMVVRACGCH
- number and complexity of neurofilament positive cells [4]: enhances the number and complexity of neurofilament positive cells
